Results from patent US20230227547A1, “ANTIBODY-PAYLOAD CONJUGATES WITH ENHANCED DELIVERY DOMAIN AND USES THEREOF” (IPROGEN BIOTECH INC., priority 2019, published 2023).

How the values were obtained:
T47D cells [1] = test: Anti-HER2 mAb delivery efficiency using antimicrobial peptides; type: cell-based, human; settings: peptide conjugated to anti-HER2 mAb, 100 nM + 100 nM Z-GFP, 4 hours
Experimental: (§1) LL37 and LL37-derived peptides were produced synthetically with two additional N-terminal glycine residues (e.g. as shown in SEQ ID NO:2 compared to SEQ ID NO: 1) to enable the sortase reaction. The LL37-derived peptides (PEP#35 to #43, SEQ ID NOs: 13-21) were all dissolved at 10 mg/ml in phosphate buffer saline (PBS) at room temperature, sterile-filtered, and stored at -20° C. freezer. PEP#48 (SEQ ID: 74), PEP#49 (SEQ ID No: 75), and PEP#60 (SEQ ID NO: 105) were dissolved in 20% (v/v) acetonitrile in PBS. PEP#47 (SEQ ID NO: 96), PEP#86 (SEQ ID NO: 78), PEP#98 (SEQ ID NO: 79), PEP#99 (SEQ ID NO: 80), PEP#102 (SEQ ID NO: 82), and PEP#104 (SEQ ID NO: 84) were dissolved in DMSO. PEP#50 (SEQ ID No: 76), PEP#51 (SEQ ID No: 97), PEP#55 (SEQ ID No: 77), PEP#58 (SEQ ID No: 103), PEP#59 (SEQ ID No: 104), PEP#61 (SEQ ID No: 106), PEP#62 (SEQ ID No: 107), PEP#63 (SEQ ID No: 108), PEP#64 (SEQ ID No: 109), PEP#66 (SEQ ID No: 110), and PEP#94 (SEQ ID No: 35) were all dissolved in PBS. […] The reaction was incubated inside a 37° C. incubator for 16 hours, and then EDTA (pH 7.5) was added to 10 mM in the reaction mixture to chelate calcium and stop the reaction.
The plates were then removed from the incubator, and the culturing media was removed from the adherent cells. […] Then, the PBS wash was replaced 250 µl of fresh PBS for fluorescence microscope imaging.

T47D cells [2] = test: Anti-HER2 mAb delivery efficiency using LL37-derived peptide constructs; type: cell-based, human; settings: peptide conjugated to anti-HER2 mAb light chain, 100 nM Ab, Z-GFP (PEP#6, 35-43) or Goat anti-human IgG-AlexaFluor 488 (PEP#6, 47-94) fluorescence microscopy
Experimental: as §1
Delivery assay: The following delivery assay method was used on the anti-HER2 mAbs conjugated to the PEP#6, #35, #36, #37, #38, #39, #40, #41, #42, and #43 described in Table 7. […] The plates were then removed from the incubator, and the culturing media was removed from the adherent cells. The adherent cells were washed gently with an equal volume of ice-cold PBS. Then, the PBS wash was replaced 250 µl of fresh PBS for fluorescence microscope imaging.
At the end of incubation, the adherent target cells were washed twice with ice-cold PBS, fixed with 2% (w/v) formaldehyde in PBS at room temperature for 15 minutes, and washed twice with PBS at room temperature. The fixed adherent target cells were then permeabilized with 0.05% (v/v) Tween-20 in PBS at room temperature for 15 minutes. The permeabilized cells were then incubated with 5% (v/v) FBS, 0.05% (v/v) Tween-20 in PBS at 37 degree Celsius incubator for 30 minutes. The secondary antibody, Goat anti-human IgG-AlexaFluor 488, was added to 5 ug/ml in 5% (v/v) FBS, 0.05% (v/v) Tween-20 in PBS, and incubated with the treated target cells at 37 degree Celsius incubator for 30 minutes. After incubation, the labelled cells were washed twice with PBS, and stored in storage buffer [5% (v/v) FBS in PBS] at 4 degree Celsius until fluorescence microscope imaging. The delivery of mAb and mAb-LL37-derived peptides were determined qualitatively by estimating the green fluorescence intensity emitted from the AlexFluor488-labelled secondary antibody bound to mAb or mAb-LL37-derived peptides.

LLGDFFRKSKEKIGKEFKRIVQRIKDFLRNLVPRTES [PEP#6 (LL37), two N-terminal glycines added for conjugation]
Delivery efficiency (T47D cells [1]): +++ (Same as LL37) | Delivery efficiency (T47D cells [2]): +++ (Same as LL37)
